Values of other authors in patent US20210145036A1 (priority 2018, published 2021).

Conditions: in vivo

**Q.** For “(1S,5S)-2,6,6-Trimethylbicyclo[3.1.1]hept-2-ene ((−)-α-Pinene)”, which human pulmonary uptake is on record?
**A.** The human pulmonary uptake was 60%.
